Laboratory results taken from US9708314B2, “Heterocyclic amide compound” (NISSAN CHEMICAL INDUSTRIES, LTD., priority 2013, dated 2017).

Key:
Format in all cases: in vivo
[1] = test system: Echinochloa oryzacola Vasing.; experiment: Test Example 1: herbicidal activity, application before weed generation in submerged conditions; conditions: Application herbicide amount 320 g/ha; Seventeenth Table
Procedure, shortened: (§1)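 Submerged pot test: alluvial soil, 4 cm water, seeds sown mixed, 2.5-leaf rice transplanted; emulsion in water applied to surface day of sowing, dose g/ha; greenhouse 25–30° C.; 3 wk; 0–5 rating.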

Monochoria vaginalis = experiment: as above; conditions: Application herbicide amount 320 g/ha; Seventeenth Table
Procedure, shortened: as §1

Scirpus juncoides = experiment: as above; conditions: Application herbicide amount 320 g/ha; Seventeenth Table
Procedure, shortened: as §1

[2] = test system: transplanted Oryza sativa; experiment: Test Example 1: effect on crop, application before weed generation in submerged conditions; conditions: Application herbicide amount 320 g/ha; Seventeenth Table
Procedure, shortened: as §1

[3] = test system: Beta vulgaris ssp. vulgaris; experiment: Test Example 4: effect on crop by application to foliage (diluvial soil, plastic box); conditions: application to foliage; for f: effect on crop, Beta vulgaris ssp. vulgaris: application herbicide amount 320 g/ha; for effect on crop, f (Beta vulgaris ssp. vulgaris): 320 g/ha
Procedure, shortened: (§2)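 Read-out is a 0–5 visual grade of herbicidal ratio (5: ≥90%, almost withered; 0: ≤5%) taken three weeks after treatment. Compound was applied as a diluted emulsion to stem and leaf parts of 14-day greenhouse-grown plants (25° C. to 30° C.) at rates expressed as g/ha.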

Brassica campestris L. = experiment: as above; conditions: application to foliage; for g: effect on crop, Brassica campestris L.: application herbicide amount 320 g/ha; for effect on crop, g (Brassica campestris L.): 320 g/ha
Procedure, shortened: as §2

Glycine max = experiment: as above; conditions: application to foliage; for d: effect on crop, Glycine max: application herbicide amount 320 g/ha; for effect on crop, c (Glycine max): 320 g/ha
Procedure, shortened: as §2

Triticum aestivum = experiment: as above; conditions: application to foliage; for e: effect on crop, Triticum aestivum: application herbicide amount 320 g/ha; for effect on crop, e (Triticum aestivum): 320 g/ha
Procedure, shortened: as §2

Zea mays = experiment: as above; conditions: application to foliage, application herbicide amount 320 g/ha
Procedure, shortened: as §2

[4] = test system: directly sowed Oryza sativa; experiment: as above; conditions: application to foliage; for b: effect on crop, directly sowed Oryza sativa: application herbicide amount 320 g/ha; for effect on crop, d (directly sowed Oryza sativa): 320 g/ha
Procedure, shortened: as §2

Row | Compound | A: Echinochloa oryzicola Vasing. (herbicidal effect grade) [1] | C: Monochoria vaginalis (herbicidal effect grade) (Monochoria vaginalis) | B: Scirpus juncoides (herbicidal effect grade) (Scirpus juncoides) | a: transplanted Oryza sativa (effect on crop grade) [2] | f: effect on crop, Beta vulgaris ssp. vulgaris [3] | g: effect on crop, Brassica campestris L. (Brassica campestris L.) | d: effect on crop, Glycine max (Glycine max) | e: effect on crop, Triticum aestivum (Triticum aestivum) | c: effect on crop, Zea mays (Zea mays) | b: effect on crop, directly sowed Oryza sativa [4] | effect on crop, f (Beta vulgaris ssp. vulgaris) [3] | effect on crop, g (Brassica campestris L.) (Brassica campestris L.) | effect on crop, c (Glycine max) (Glycine max) | effect on crop, e (Triticum aestivum) (Triticum aestivum) | effect on crop, d (directly sowed Oryza sativa) [4]
1 | COc1ccc(N(C)c2nnc3c(C(=O)Nc4nnco4)ccc(C(F)(F)F)n23)cc1 [1-171] | 5 (Herbicidal ratio of 90% or more (almost completely withered)) | 4 (Herbicidal ratio of 70% or more and less than 90%) | 4 (Herbicidal ratio of 70% or more and less than 90%) | 1 (Herbicidal ratio of 5% or more and less than 20%) | 5 (Herbicidal ratio of 90% or more (almost completely withered)) | 3 (Herbicidal ratio of 40% or more and less than 70%) | 3 (Herbicidal ratio of 40% or more and less than 70%) | 0 (Herbicidal ratio of 5% or less (almost no effect)) | 0 (Herbicidal ratio of 5% or less (almost no effect)) | 0 (Herbicidal ratio of 5% or less (almost no effect)) | – | – | – | – | –
2 | C=CCN(C)c1nnc2c(C(=O)Nc3nnco3)ccc(C(F)(F)F)n12 [1-172] | 5 (Herbicidal ratio of 90% or more (almost completely withered)) | 3 (Herbicidal ratio of 40% or more and less than 70%) | 4 (Herbicidal ratio of 70% or more and less than 90%) | 1 (Herbicidal ratio of 5% or more and less than 20%) | 5 (Herbicidal ratio of 90% or more (almost completely withered)) | 4 (Herbicidal ratio of 70% or more and less than 90%) | 4 (Herbicidal ratio of 70% or more and less than 90%) | 1 (Herbicidal ratio of 5% or more and less than 20%) | 0 (Herbicidal ratio of 5% or less (almost no effect)) | 3 (Herbicidal ratio of 40% or more and less than 70%) | – | – | – | – | –
3 | Cn1nnnc1NC(=O)c1ccc(C(F)(F)F)n2cnnc12 [2-001] | 2 (Herbicidal ratio of 20% or more and less than 40%) | 4 (Herbicidal ratio of 70% or more and less than 90%) | 3 (Herbicidal ratio of 40% or more and less than 70%) | 0 (Herbicidal ratio of 5% or less (almost no effect)) | 5 (Herbicidal ratio of 90% or more (almost completely withered)) | 4 (Herbicidal ratio of 70% or more and less than 90%) | 2 (Herbicidal ratio of 20% or more and less than 40%) | 0 (Herbicidal ratio of 5% or less (almost no effect)) | 0 (Herbicidal ratio of 5% or less (almost no effect)) | 0 (Herbicidal ratio of 5% or less (almost no effect)) | – | – | – | – | –
4 | Cc1nnc2c(C(=O)Nc3nnnn3C)ccc(C(F)(F)F)n12 [2-002] | 2 (Herbicidal ratio of 20% or more and less than 40%) | 3 (Herbicidal ratio of 40% or more and less than 70%) | 3 (Herbicidal ratio of 40% or more and less than 70%) | 0 (Herbicidal ratio of 5% or less (almost no effect)) | 5 (Herbicidal ratio of 90% or more (almost completely withered)) | 4 (Herbicidal ratio of 70% or more and less than 90%) | 3 (Herbicidal ratio of 40% or more and less than 70%) | 1 (Herbicidal ratio of 5% or more and less than 20%) | 0 (Herbicidal ratio of 5% or less (almost no effect)) | 2 (Herbicidal ratio of 20% or more and less than 40%) | – | – | – | – | –
5 | CC(C)c1nnc2c(C(=O)Nc3nnnn3C)ccc(C(F)(F)F)n12 [2-003] | 5 (Herbicidal ratio of 90% or more (almost completely withered)) | 5 (Herbicidal ratio of 90% or more (almost completely withered)) | 5 (Herbicidal ratio of 90% or more (almost completely withered)) | 4 (Herbicidal ratio of 70% or more and less than 90%) | 5 (Herbicidal ratio of 90% or more (almost completely withered)) | 5 (Herbicidal ratio of 90% or more (almost completely withered)) | 4 (Herbicidal ratio of 70% or more and less than 90%) | 3 (Herbicidal ratio of 40% or more and less than 70%) | 1 (Herbicidal ratio of 5% or more and less than 20%) | 4 (Herbicidal ratio of 70% or more and less than 90%) | – | – | – | – | –
6 | Cn1nnnc1NC(=O)c1ccc(C(F)(F)F)n2c(SCC3CC3)nnc12 [2-084] | 5 (Herbicidal ratio of 90% or more (almost completely withered)) | 4 (Herbicidal ratio of 70% or more and less than 90%) | 5 (Herbicidal ratio of 90% or more (almost completely withered)) | 4 (Herbicidal ratio of 70% or more and less than 90%) | – | – | – | – | – | – | 5 (Herbicidal ratio of 90% or more (almost completely withered)) | 3 (Herbicidal ratio of 40% or more and less than 70%) | 1 (Herbicidal ratio of 5% or more and less than 20%) | 3 (Herbicidal ratio of 40% or more and less than 70%) | 3 (Herbicidal ratio of 40% or more and less than 70%)
7 | Cn1nnnc1NC(=O)c1ccc(C(F)(F)F)n2c(SCC3CCCO3)nnc12 (centres unmarked) [2-085] | 5 (Herbicidal ratio of 90% or more (almost completely withered)) | 4 (Herbicidal ratio of 70% or more and less than 90%) | 5 (Herbicidal ratio of 90% or more (almost completely withered)) | 1 (Herbicidal ratio of 5% or more and less than 20%) | – | – | – | – | – | – | 5 (Herbicidal ratio of 90% or more (almost completely withered)) | 4 (Herbicidal ratio of 70% or more and less than 90%) | 2 (Herbicidal ratio of 20% or more and less than 40%) | 3 (Herbicidal ratio of 40% or more and less than 70%) | 5 (Herbicidal ratio of 90% or more (almost completely withered))
8 | Cn1nnnc1NC(=O)c1ccc(C(F)(F)F)n2c(SCC#N)nnc12 [2-086] | 3 (Herbicidal ratio of 40% or more and less than 70%) | 3 (Herbicidal ratio of 40% or more and less than 70%) | 2 (Herbicidal ratio of 20% or more and less than 40%) | 0 (Herbicidal ratio of 5% or less (almost no effect)) | – | – | – | – | – | – | 5 (Herbicidal ratio of 90% or more (almost completely withered)) | 3 (Herbicidal ratio of 40% or more and less than 70%) | 0 (Herbicidal ratio of 5% or less (almost no effect)) | 2 (Herbicidal ratio of 20% or more and less than 40%) | 4 (Herbicidal ratio of 70% or more and less than 90%)
9 | Cn1nnnc1NC(=O)c1ccc(C(F)(F)F)n2c(SCC(F)(F)F)nnc12 [2-087] | 5 (Herbicidal ratio of 90% or more (almost completely withered)) | 4 (Herbicidal ratio of 70% or more and less than 90%) | 5 (Herbicidal ratio of 90% or more (almost completely withered)) | 3 (Herbicidal ratio of 40% or more and less than 70%) | – | – | – | – | – | – | 5 (Herbicidal ratio of 90% or more (almost completely withered)) | 3 (Herbicidal ratio of 40% or more and less than 70%) | 0 (Herbicidal ratio of 5% or less (almost no effect)) | 2 (Herbicidal ratio of 20% or more and less than 40%) | 3 (Herbicidal ratio of 40% or more and less than 70%)
10 | CCN(CC)c1nnc2c(C(=O)Nc3nnnn3C)ccc(C(F)(F)F)n12 [2-089] | 5 (Herbicidal ratio of 90% or more (almost completely withered)) | 5 (Herbicidal ratio of 90% or more (almost completely withered)) | 5 (Herbicidal ratio of 90% or more (almost completely withered)) | 4 (Herbicidal ratio of 70% or more and less than 90%) | – | – | – | – | – | – | 5 (Herbicidal ratio of 90% or more (almost completely withered)) | 4 (Herbicidal ratio of 70% or more and less than 90%) | 0 (Herbicidal ratio of 5% or less (almost no effect)) | 0 (Herbicidal ratio of 5% or less (almost no effect)) | 4 (Herbicidal ratio of 70% or more and less than 90%)
